Measurements taken from ChEMBL document CHEMBL1133125, “A sigma-1 receptor selective analogue of BD1008. A potential substitute for (+)-opioids in sigma receptor binding assays” (Bioorg Med Chem Lett, 2000).

Target: Sigma 2 receptor
Assay: Binding affinity against sigma 2 opioid receptor using 3[H]-DTG in the presence of dextrallorphan as radioligand

CN(CCc1ccc(Cl)c(Cl)c1)CCN1CCCC1
Ki: 8.1 nM

O=C(Cc1ccc(Cl)c(Cl)c1)OCCN1CCCC1
Ki: > 10000 nM
